Test results published in article PMC8626825 (Virology, 2021).

Columns and labels:
SARS-CoV-2 [1] = assay: SARS-CoV-2 RNA accumulation in MRC5-ACE2 cells; type: cell-based, SARS-CoV-2 isolate Hong Kong/VM20001061/2020
SARS-CoV-2 [2] = assay: SARS-CoV-2-induced cytopathic effect in MRC5-ACE2 cells; type: cell-based
SARS-CoV-2 N protein = SARS-CoV-2 N protein accumulation in MRC5-ACE2 cells; type: cell-based
SARS-CoV-2 [3] = type: cell-based
OC43 [4] = conditions: for effect of co-treatment on IC50 of remdesivir against OC43-induced CPE: co-treatment with remdesivir, 5 μM lapatinib or 10 μM doramapimod
SARS-CoV-2 [5] = conditions: ref Dittmar et al., 2021; cited from earlier work
SARS-CoV-2 [6] = conditions: SOLIDARITY trial, ref Pan et al., 2020; cited from earlier work
[7] = cited from earlier work; for maximal accumulation in plasma: healthy patients given remdesivir, ref Jorgensen et al.; for maximal accumulation in plasma / concentration in bronchoalveolar aspirates: 2020; for concentration in bronchoalveolar aspirates: remdesivir treated COVID-19 patients, ref Pan et al.
3CLpro [8] = conditions: 2020, cited from earlier work
3CLpro [9] = conditions: ref Ghahremanpour et al., 2020; cited from earlier work
OC43 [10] = type: cell-based, human betacoronavirus (OC43); conditions: OC43, MRC5
OC43 [11] = assay: OC43 viral RNA accumulation in MRC5 cells; type: cell-based, human betacoronavirus (OC43); conditions: MRC5, OC43, 24 hpi
[12] = lapatinib, human patients, ref Spector et al., 2015

Which results are given for `Cc1ccc(-n2nc(C(C)(C)C)cc2NC(=O)Nc2ccc(OCCN3CCOCC3)c3ccccc23)cc1` [doramapimod]?
SARS-CoV-2 RNA accumulation (SARS-CoV-2 [1]): able to block SARS-CoV-2 RNA accumulation at a low μM concentration; dose of remdesivir required to abolish SARS-CoV-2 RNA accumulation (SARS-CoV-2 [1]): dramatically reduce the dose of remdesivir required; SARS-CoV-2-induced CPE (SARS-CoV-2 [2]): blocked SARS-CoV-2-induced CPE; SARS-CoV-2 N protein accumulation (SARS-CoV-2 N protein): completely prevented SARS-CoV-2 N protein accumulation; dose of remdesivir required to abolish production of infectious virions (SARS-CoV-2 [3]): dramatically reduce the dose of remdesivir required; effect of co-treatment on IC50 of remdesivir against OC43-induced CPE (OC43 [4]): reduced the IC50 of remdesivir into the sub-μM range

With `CCN(CCO)CCCC(C)Nc1ccnc2cc(Cl)ccc12` (stereo not drawn) [hydroxychloroquine] as the molecule, how does the “activity against SARS-CoV-2 in human lung epithelial cell lines” value (SARS-CoV-2 [5]) read?
The value was “ineffective”.

And the clinical effectiveness (SARS-CoV-2 [6])?
The clinical effectiveness was “not clinically effective”.

Which “concentration in tissue samples” value [7, 12] does the source give for `CS(=O)(=O)CCNCc1ccc(-c2ccc3ncnc(Nc4ccc(OCc5cccc(F)c5)c(Cl)c4)c3c2)o1` [lapatinib] here?
The value was 8 to 12 µM.

What about the “plasma concentration in human patients” value [7, 12] of the same molecule?
The value was 1 to 3 µM.

What about the “SARS-CoV-2 RNA accumulation” value (SARS-CoV-2 [1]) of the same molecule?
The value was “dramatic reduction in viral RNA accumulation”.

What about the “dose of remdesivir required to abolish SARS-CoV-2 RNA accumulation” value (SARS-CoV-2 [1]) of the same molecule?
The value was “dramatically reduce the dose of remdesivir required”.

And the “inhibition of SARS-CoV-2 RNA replication” value (SARS-CoV-2 [1])?
Its value is “over 50,000 fold”.

What about the “inhibition of 3CLpro activity” value (3CLpro [8]; pre-print, ref Drayman et al.) of the same molecule?
The value was “could, in fact, inhibit the activity of 3CLpro”.

And the “inhibition of 3CLpro (experimental)” value (3CLpro [8]; ref Ghahremanpour et al.)?
The value was “did not inhibit 3CLpro”.

And the “SARS-CoV-2-induced CPE” value (SARS-CoV-2 [2])?
Its value is “blocked SARS-CoV-2-induced CPE”.

What about the “SARS-CoV-2 N protein accumulation” value (SARS-CoV-2 N protein) of the same molecule?
The value was “completely prevented SARS-CoV-2 N protein accumulation”.

What about the “dose of remdesivir required to abolish production of infectious virions” value (SARS-CoV-2 [3]) of the same molecule?
Its value is “dramatically reduce the dose of remdesivir required”.

And the “effect of co-treatment on IC50 of remdesivir against OC43-induced CPE” value (OC43 [4])?
The value was “reduced the IC50 of remdesivir into the sub-μM range”.

And the “in silico molecular docking result” value (3CLpro [9])?
The value was “putative inhibitor of the SARS-CoV-2 protease, 3CLpro”.

For `COc1cc2ncnc(Nc3ccc(F)c(Cl)c3)c2cc1OCCCN1CCOCC1` [gefitinib], which “identified as hit in the screen” value (OC43 [10]) is on record?
The value was “not identified”.

For `C#Cc1cccc(Nc2ncnc3cc(OCCOC)c(OCCOC)cc23)c1` [erlotinib], which “identified as hit in the screen” value (OC43 [10]) is on record?
Its value is “not identified”.

Which results are given for `N#C[C@@]1(c2ccc3c(N)ncnn23)O[C@H](CO)[C@@H](O)[C@H]1O` [GS-441524]?
maximal accumulation in plasma [7]: about 0.5 μM; concentration in bronchoalveolar aspirates [7]: ~0.015 µM

With `CCC(CC)COC(=O)[C@H](C)N[P@](=O)(OC[C@H]1O[C@@](C#N)(c2ccc3c(N)ncnn23)[C@H](O)[C@@H]1O)Oc1ccccc1` [remdesivir] as the molecule, how does the “maximal accumulation in plasma” value [7] read?
Its value is 4 to 9 µM.

And the “concentration in bronchoalveolar aspirates” value [7]?
Its value is “not detectable”.

And the clinical effectiveness (SARS-CoV-2 [6])?
Its clinical effectiveness is “not clinically effective”.

And the “IC50 of remdesivir against OC43-induced CPE” value (OC43 [4]; remdesivir alone, MRC5)?
Its value is “in the μM range”.

For `C=CCNC1=C2C[C@@H](C)C[C@H](OC)[C@H](O)[C@@H](C)/C=C(\C)[C@H](OC(N)=O)[C@@H](OC)/C=C\C=C(/C)C(=O)NC(=CC1=O)C2=O` [17-AAG], which “SARS-CoV-2 RNA accumulation” value (SARS-CoV-2 [1]) is on record?
Its value is “only minimally reduced SARS-CoV-2 RNA accumulation”.

And the “dose blocking OC43 viral RNA accumulation relative to remdesivir (fold less)” value (OC43 [11])?
Its value is roughly 10 fold.
